Measured values as given in US7951815B2, “Substituted 1,4,8-triazaspiro [4,5]decan-2-one compounds” (Gruenenthal GmbH, priority 2004, dated 2011).

What was measured:
5-HT transporter = target: T1, 5-HT transporter (Rattus norvegicus, UniProt P31652); test: Inhibition of 5-HT uptake in rat brain synaptosomes; assay type: biochemical; conditions: rat, 1 μM; for inhibition at 1 µM: read-out: Uptake 5-HT, % inhibition, Table III
T1 construct: synaptosomes of rat brain areas are freshly isolated; from tissue; host or cells: rat brain synaptosomes (P2 fraction) from marrow and pons
T1 sequence (P31652 whole entry): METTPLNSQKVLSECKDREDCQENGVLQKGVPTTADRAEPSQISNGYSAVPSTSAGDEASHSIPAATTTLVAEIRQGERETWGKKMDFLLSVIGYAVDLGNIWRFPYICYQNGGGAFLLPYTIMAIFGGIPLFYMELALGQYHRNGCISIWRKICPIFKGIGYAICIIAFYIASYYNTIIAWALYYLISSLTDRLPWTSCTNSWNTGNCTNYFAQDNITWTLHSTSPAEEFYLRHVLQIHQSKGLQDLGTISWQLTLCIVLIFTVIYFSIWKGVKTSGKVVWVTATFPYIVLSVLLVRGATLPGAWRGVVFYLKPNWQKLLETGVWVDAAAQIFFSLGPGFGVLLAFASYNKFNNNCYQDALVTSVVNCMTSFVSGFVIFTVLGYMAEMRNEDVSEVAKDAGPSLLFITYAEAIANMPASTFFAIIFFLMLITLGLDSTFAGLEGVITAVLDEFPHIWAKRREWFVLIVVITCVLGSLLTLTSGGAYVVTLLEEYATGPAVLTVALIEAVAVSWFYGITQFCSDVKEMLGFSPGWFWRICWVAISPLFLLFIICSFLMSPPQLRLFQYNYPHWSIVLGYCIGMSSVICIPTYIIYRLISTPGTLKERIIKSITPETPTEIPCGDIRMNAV

NA transporter = test: Inhibition of noradrenaline uptake in rat brain synaptosomes; assay type: biochemical; conditions: Table III
[1] = system: batrachotoxin (BTX) binding site of the sodium channel; test: Affinity to the batrachotoxin (BTX) binding site of the sodium channel; conditions: rat cerebrocortex synaptosomes, test concentration not given

**Q.** What does the source list for `Cc1onc(-c2c(F)cccc2Cl)c1C(=O)N1CCC2(CC1)NC(=O)C(Cc1ccccc1)N2` (stereo not drawn) [Example 115, 3-Benzyl-8-[3-(2-chloro-6-fluorophenyl)-5-methylisoxazole-4-carbonyl]-1,4,8-triazaspiro[4,5]decan-2-one]?
**A.** inhibition at 1 µM (5-HT transporter): 30%; Uptake (NA), rat, 10 μM, % inhibition (NA transporter): 34%

**Q.** For `CSCCC1NC2(CCN(C(=O)c3ccc4c(c3)OCO4)CC2)N(Cc2cccc(C#N)c2)C1=O` (stereo not drawn) [Example 138, 3-[8-(Benzo[1,3]dioxol-5-carbonyl)-3-(2-methylsulfanylethyl)-2-oxo-1,4,8-triazaspiro[4,5]dec-1-ylmethyl]benzonitrile], which “Uptake (NA), rat, 10 μM, % inhibition” value (NA transporter) is on record?
**A.** 30%

**Q.** How did the “Uptake (NA), rat, 10 μM, % inhibition” value (NA transporter) turn out when `CN1C(=O)C(Cc2ccccc2)NC12CCN(C(=O)c1ccc([N+](=O)[O-])cc1)CC2` (stereo not drawn) [Example 238, 3-Benzyl-1-methyl-8-(4-nitrobenzoyl)-1,4,8-triazaspiro[4,5]decan-2-one] was run?
**A.** 31%

**Q.** How did the “Uptake (NA), rat, 10 μM, % inhibition” value (NA transporter) turn out when `CCOC(=O)CN1C(=O)C(CCSC)NC12CCN(C(=O)c1ccccc1C(=O)OCc1ccccc1)CC2` (stereo not drawn) [Example 332, Benzyl 2-[1-ethoxycarbonylmethyl-3-(2-methylsulfanylethyl)-2-oxo-1,4,8-triazaspiro[4,5]decan-8-carbonyl]benzoate] was run?
**A.** 36%

**Q.** Which “Uptake (NA), rat, 10 μM, % inhibition” value (NA transporter) does the source give for `C=CCCC(=O)N1CCC2(CC1)NC(Cc1ccccc1)C(=O)N2C` (stereo not drawn) [Example 139, 3-Benzyl-1-methyl-8-pent-4-enoyl-1,4,8-triazaspiro[4,5]decan-2-one] here?
**A.** 31%

**Q.** Which “Uptake (NA), rat, 10 μM, % inhibition” value (NA transporter) does the source give for `COC(=O)c1ccc(CN2C(=O)CNC23CCN(C(=O)c2ccnc(Cl)c2)CC3)cc1` [Example 272, Methyl 4-[8-(2-Chloropyridin-4-earbonyl)-2-oxo-1,4,8-triazaspiro[4,5]dec-1-ylmethyl]benzoate] here?
**A.** 31%

**Q.** `CC(C)C1NC2(CCN(C(=O)c3c(F)c(F)c(F)c(F)c3F)CC2)NC1=O` (stereo not drawn) [Example 95, 3-Isopropyl-8-pentafluorobenzoyl-1,4,8-triazaspiro[4,5]decan-2-one] was tested. Which “Uptake (NA), rat, 10 μM, % inhibition” value (NA transporter) did it give?
**A.** 31%

**Q.** How did the “Uptake (NA), rat, 10 μM, % inhibition” value (NA transporter) turn out when `CC(C)CC1NC2(CCN(C(=O)c3sccc3Cl)CC2)NC1=O` (stereo not drawn) [Example 94, 8-(3-Chlorothiophene-2-carbonyl)-3-isobutyl-1,4,8-triazaspiro[4,5]decan-2-one] was run?
**A.** 38%

**Q.** How did the “Uptake (NA), rat, 10 μM, % inhibition” value (NA transporter) turn out when `CSCCC1NC2(CCN(C(=O)c3cccnc3Oc3ccccc3)CC2)N(C)C1=O` (stereo not drawn) [Example 120, 1-Methyl-3-(2-methylsulfanylethyl)-8-(2-phenoxypyridin-3-carbonyl)-1,4,8-triazaspiro[4,5]decan-2-one] was run?
**A.** 32%

**Q.** How did the “Uptake (NA), rat, 10 μM, % inhibition” value (NA transporter) turn out when `Cc1cccc(C(=O)N2CCC3(CC2)NC(=O)C(Cc2ccccc2)N3)c1C` (stereo not drawn) [Example 108, 3-Benzyl-8-(2,3-dimethylbenzoyl)-1,4,8-triazaspiro[4,5]decan-2-one] was run?
**A.** 37%

**Q.** How did the “Uptake (NA), rat, 10 μM, % inhibition” value (NA transporter) turn out when `CC(C)CC1NC2(CCN(C(=O)COCc3ccccc3)CC2)NC1=O` (stereo not drawn) [Example 80, 8-(2-Benzyloxyacetyl)-3-isobutyl-1,4,8-triazaspiro[4,5]decan-2-one] was run?
**A.** 30%

**Q.** Which “Uptake (NA), rat, 10 μM, % inhibition” value (NA transporter) does the source give for `O=C(C1CCCCC1)N1CCC2(CC1)NCC(=O)N2CCOc1ccccc1` [Example 123, 8-Cyclohexanecarbonyl-1-(2-phenoxyethyl)-1,4,8-triazaspiro[4,5]decan-2-one] here?
**A.** 36%

**Q.** Which BTX inhibition ([1]; Table III) does the source give for `CCCC(C)C(=O)N1CCC2(CC1)NC(CC(C)C)C(=O)N2CC(=O)OCC` (stereo not drawn) [Example 291, Ethyl [3-isobutyl-8-(2-methylpentanoyl)-2-oxo-1,4,8-triazaspiro[4,5]dec-1-yl]acetate] here?
**A.** 33

**Q.** And the inhibition at 1 µM (5-HT transporter)?
**A.** 38%

**Q.** Which results are given for `Cc1nc(C(F)(F)F)ccc1C(=O)N1CCC2(CC1)NC(C(C)C)C(=O)N2CCOc1ccccc1` (stereo not drawn) [Example 167, 3-Isopropyl-8-(2-methyl-6-trifluoromethylpyridin-3-carbonyl)-1-(2-phenoxyethyl)-1,4,8-triazaspiro[4,5]decan-2-one]?
**A.** BTX inhibition ([1]; Table III): 38; inhibition at 1 µM (5-HT transporter): 52%

**Q.** `CC(C)CC1NC2(CCN(C(=O)c3ccc4nonc4c3)CC2)N(Cc2c(Cl)cccc2Cl)C1=O` (stereo not drawn) [Example 275, 8-(Benzo[1,2,5]oxadiazole-5-carbonyl)-1-(2,6-dichlorobenzyl)-3-isobutyl-1,4,8-triazaspiro[4,5]decan-2-one] was tested. Which BTX inhibition ([1]; Table III) did it give?
**A.** 61

**Q.** And the inhibition at 1 µM (5-HT transporter)?
**A.** 33%

**Q.** What does the source list for `COc1ccc(OC)c(CC(=O)N2CCC3(CC2)NC(CCSC)C(=O)N3Cc2ccccc2F)c1` (stereo not drawn) [Example 195, 8-[2-(2,5-Dimethoxyphenyl)acetyl]-1-(2-fluorobenzyl)-3-(2-methylsulfanylethyl)-1,4,8-triazaspiro[4,5]decan-2-one]?
**A.** BTX inhibition ([1]; Table III): 34; inhibition at 1 µM (5-HT transporter): 50%

**Q.** For `CCCc1c(C(=O)N2CCC3(CC2)NC(Cc2ccccc2)C(=O)N3CC(=O)OCC)cnn1-c1ccccc1` (stereo not drawn) [Example 306, Ethyl [3-benzyl-2-oxo-8-(1-phenyl-5-propyl-1H-pyrazole-4-carbonyl)-1,4,8-triazaspiro[4,5]dec-1-yl]acetate], which BTX inhibition ([1]; Table III) is on record?
**A.** 68

**Q.** And the inhibition at 1 µM (5-HT transporter)?
**A.** 85%

**Q.** `CC(C)(C)CC(=O)N1CCC2(CC1)NC(Cc1ccccc1)C(=O)N2Cc1ccccc1` (stereo not drawn) [Example 230, 1,3-Dibenzyl-8-(3,3-dimethylbutyryl)-1,4,8-triazaspiro[4,5]decan-2-one] was tested. Which BTX inhibition ([1]; Table III) did it give?
**A.** 30

**Q.** What about the inhibition at 1 µM (5-HT transporter) of the same compound?
**A.** 72%

**Q.** How did the BTX inhibition ([1]; Table III) turn out when `O=C(C=Cc1ccccc1)N1CCC2(CC1)NC(Cc1ccccc1)C(=O)N2Cc1ccccc1` (stereo not drawn) [Example 223, 1,3-Dibenzyl-8-(3-phenylacryloyl)-1,4,8-triazaspiro[4,5]decan-2-one] was run?
**A.** 62

**Q.** And the inhibition at 1 µM (5-HT transporter)?
**A.** 49%

**Q.** For `CN1C(=O)C(Cc2ccccc2)NC12CCN(C(=O)C=Cc1ccccc1Cl)CC2` (stereo not drawn) [Example 203, 3-Benzyl-8-[3-(2-chlorophenyl)acryloyl]-1-methyl-1,4,8-triazaspiro[4,5]decan-2-one], which BTX inhibition ([1]; Table III) is on record?
**A.** 48

**Q.** And the inhibition at 1 µM (5-HT transporter)?
**A.** 34%

**Q.** `CCOC(=O)CN1C(=O)C(CC(C)C)NC12CCN(C(=O)CC(C)C)CC2` (stereo not drawn) [Example 288, Ethyl [3-isobutyl-8-(3-methylbutyryl)-2-oxo-1,4,8-triazaspiro[4,5]dec-1-yl]acetate] was tested. Which BTX inhibition ([1]; Table III) did it give?
**A.** 32

**Q.** And the inhibition at 1 µM (5-HT transporter)?
**A.** 45%

**Q.** What does the source list for `Cc1onc(-c2c(F)cccc2Cl)c1C(=O)N1CCC2(CC1)NC(=O)C(C(C)C)N2` (stereo not drawn) [Example 149, 8-[3-(2-Chloro-6-fluorophenyl)-5-methylisoxazole-4-carbonyl]-3-isopropyl-1,4,8-triazaspiro[4,5]decan-2-one]?
**A.** BTX inhibition ([1]; Table III): 33; inhibition at 1 µM (5-HT transporter): 33%

**Q.** With `CCC(CC)C(=O)N1CCC2(CC1)N[C@@H](Cc1ccccc1)C(=O)N2Cc1ccc(OC)cc1.Cl` (racemic) [Example 30, 3-(S,R)-benzyl-8-(2-ethylbutyryl)-1-(4-methoxybenzyl)-1,4,8-triazaspiro[4,5]decan-2-one hydrochloride] as the compound, how does the BTX inhibition ([1]; Table II) read?
**A.** 35

**Q.** And the “Uptake 5-HT, rat, 1 μM, % inhibition” value (5-HT transporter; Table II)?
**A.** 42%

**Q.** How did the BTX inhibition ([1]; Table III) turn out when `CCCCC(=O)N1CCC2(CC1)NC(Cc1ccccc1)C(=O)N2CC(=O)OCC` (stereo not drawn) [Example 299, Ethyl (3-benzyl-2-oxo-8-pentanoyl-1,4,8-triazaspiro[4,5]dec-1-yl)acetate] was run?
**A.** 36

**Q.** What about the inhibition at 1 µM (5-HT transporter) of the same compound?
**A.** 66%

**Q.** `O=C(c1sccc1Cl)N1CCC2(CC1)NC(Cc1ccccc1)C(=O)N2Cc1ccccc1` (stereo not drawn) [Example 172, 1,3-Dibenzyl-8-(3-chlorothiophene-2-carbonyl)-1,4,8-triazaspiro[4,5]decan-2-one] was tested. Which BTX inhibition ([1]; Table III) did it give?
**A.** 49

**Q.** What about the inhibition at 1 µM (5-HT transporter) of the same compound?
**A.** 76%
